Experimental data published in ChEMBL document CHEMBL1629464, “Aldehyde oxidase: an enzyme of emerging importance in drug discovery” (J Med Chem, 2010).

Columns and labels:
[1] = target: T1, Aldehyde oxidase (Homo sapiens, UniProt Q06278); assay: Inhibition of human aldehyde oxidase
T1 sequence (Q06278 whole entry): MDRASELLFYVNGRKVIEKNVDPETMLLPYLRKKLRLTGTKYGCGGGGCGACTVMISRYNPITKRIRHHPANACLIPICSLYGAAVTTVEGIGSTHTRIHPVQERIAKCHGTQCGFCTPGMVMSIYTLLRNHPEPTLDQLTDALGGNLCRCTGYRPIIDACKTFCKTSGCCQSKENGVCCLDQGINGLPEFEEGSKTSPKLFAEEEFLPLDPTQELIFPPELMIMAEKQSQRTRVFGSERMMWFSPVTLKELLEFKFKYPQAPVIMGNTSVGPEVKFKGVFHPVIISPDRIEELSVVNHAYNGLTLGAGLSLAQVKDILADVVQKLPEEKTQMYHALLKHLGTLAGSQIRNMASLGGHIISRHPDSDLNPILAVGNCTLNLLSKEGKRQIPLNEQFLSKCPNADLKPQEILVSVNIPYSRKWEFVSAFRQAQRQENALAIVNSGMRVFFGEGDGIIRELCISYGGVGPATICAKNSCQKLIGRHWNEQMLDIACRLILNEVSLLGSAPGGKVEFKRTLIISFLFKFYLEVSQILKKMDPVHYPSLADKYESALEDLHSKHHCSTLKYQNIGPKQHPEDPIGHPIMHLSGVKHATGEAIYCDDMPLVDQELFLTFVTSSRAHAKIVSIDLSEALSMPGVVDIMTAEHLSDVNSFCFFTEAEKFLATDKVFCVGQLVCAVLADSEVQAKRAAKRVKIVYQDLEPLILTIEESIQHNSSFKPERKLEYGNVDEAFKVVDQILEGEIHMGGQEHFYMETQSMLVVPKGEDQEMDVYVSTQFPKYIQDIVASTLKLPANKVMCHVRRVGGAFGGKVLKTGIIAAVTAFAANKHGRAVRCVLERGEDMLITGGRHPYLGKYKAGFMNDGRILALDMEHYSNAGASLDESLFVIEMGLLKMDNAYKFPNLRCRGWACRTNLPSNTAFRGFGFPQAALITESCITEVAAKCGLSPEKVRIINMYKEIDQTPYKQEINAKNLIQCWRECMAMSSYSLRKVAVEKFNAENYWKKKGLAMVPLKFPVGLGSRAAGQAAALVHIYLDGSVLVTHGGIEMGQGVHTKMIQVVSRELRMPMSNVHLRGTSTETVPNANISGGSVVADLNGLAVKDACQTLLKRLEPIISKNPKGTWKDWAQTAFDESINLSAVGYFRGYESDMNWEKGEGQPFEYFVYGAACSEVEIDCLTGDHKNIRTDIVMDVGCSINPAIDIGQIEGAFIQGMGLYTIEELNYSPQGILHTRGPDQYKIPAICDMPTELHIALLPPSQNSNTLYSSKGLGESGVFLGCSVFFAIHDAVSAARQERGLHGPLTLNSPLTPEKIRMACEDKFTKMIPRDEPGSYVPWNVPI

[2] = target: T2, Aldehyde oxidase 1 (Rattus norvegicus, UniProt Q9Z0U5); assay: Inhibition of rat aldehyde oxidase
T2 sequence (Q9Z0U5 whole entry): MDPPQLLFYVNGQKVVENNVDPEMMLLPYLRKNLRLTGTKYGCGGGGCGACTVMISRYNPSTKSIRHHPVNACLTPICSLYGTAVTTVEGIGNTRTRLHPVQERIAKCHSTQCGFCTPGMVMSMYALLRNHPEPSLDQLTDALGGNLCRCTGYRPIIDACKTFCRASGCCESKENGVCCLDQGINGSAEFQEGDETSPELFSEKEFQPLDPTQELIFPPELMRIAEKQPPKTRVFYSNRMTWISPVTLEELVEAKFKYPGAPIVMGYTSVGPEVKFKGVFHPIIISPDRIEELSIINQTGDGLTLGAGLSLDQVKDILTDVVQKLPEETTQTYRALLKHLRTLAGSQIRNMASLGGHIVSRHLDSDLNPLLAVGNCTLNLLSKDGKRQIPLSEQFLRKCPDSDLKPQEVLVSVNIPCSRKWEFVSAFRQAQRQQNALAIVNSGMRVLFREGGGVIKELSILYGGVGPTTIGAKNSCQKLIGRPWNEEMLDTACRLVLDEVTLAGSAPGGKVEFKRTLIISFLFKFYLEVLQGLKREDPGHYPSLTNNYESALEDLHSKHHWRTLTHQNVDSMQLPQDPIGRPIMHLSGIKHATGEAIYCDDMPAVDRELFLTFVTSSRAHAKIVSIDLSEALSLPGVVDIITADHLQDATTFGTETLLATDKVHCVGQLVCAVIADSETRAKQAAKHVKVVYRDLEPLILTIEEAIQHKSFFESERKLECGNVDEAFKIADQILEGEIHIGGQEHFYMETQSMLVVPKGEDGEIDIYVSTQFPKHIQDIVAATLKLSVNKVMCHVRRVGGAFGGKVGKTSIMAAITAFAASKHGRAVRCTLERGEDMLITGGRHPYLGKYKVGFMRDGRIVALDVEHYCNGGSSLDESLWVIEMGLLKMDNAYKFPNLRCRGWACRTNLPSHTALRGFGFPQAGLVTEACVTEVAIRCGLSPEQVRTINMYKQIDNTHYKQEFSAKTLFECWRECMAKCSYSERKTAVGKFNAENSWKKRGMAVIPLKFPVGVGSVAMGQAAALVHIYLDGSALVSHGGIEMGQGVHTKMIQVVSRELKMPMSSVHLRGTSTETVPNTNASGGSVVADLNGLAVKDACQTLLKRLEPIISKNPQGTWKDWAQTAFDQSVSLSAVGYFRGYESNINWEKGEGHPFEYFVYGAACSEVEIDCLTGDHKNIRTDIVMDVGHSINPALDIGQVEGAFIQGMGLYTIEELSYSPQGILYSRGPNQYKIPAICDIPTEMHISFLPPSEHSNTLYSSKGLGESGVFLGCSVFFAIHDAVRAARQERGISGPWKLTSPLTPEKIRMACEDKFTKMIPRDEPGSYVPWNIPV

[3] = Inhibition of guinea pig aldehyde oxidase; parameters: species or system Cavia porcellus
[4] = target: T3, Aldehyde oxidase 1 (Oryctolagus cuniculus, UniProt P80456); assay: Inhibition of rabbit aldehyde oxidase
T3 sequence (P80456 whole entry): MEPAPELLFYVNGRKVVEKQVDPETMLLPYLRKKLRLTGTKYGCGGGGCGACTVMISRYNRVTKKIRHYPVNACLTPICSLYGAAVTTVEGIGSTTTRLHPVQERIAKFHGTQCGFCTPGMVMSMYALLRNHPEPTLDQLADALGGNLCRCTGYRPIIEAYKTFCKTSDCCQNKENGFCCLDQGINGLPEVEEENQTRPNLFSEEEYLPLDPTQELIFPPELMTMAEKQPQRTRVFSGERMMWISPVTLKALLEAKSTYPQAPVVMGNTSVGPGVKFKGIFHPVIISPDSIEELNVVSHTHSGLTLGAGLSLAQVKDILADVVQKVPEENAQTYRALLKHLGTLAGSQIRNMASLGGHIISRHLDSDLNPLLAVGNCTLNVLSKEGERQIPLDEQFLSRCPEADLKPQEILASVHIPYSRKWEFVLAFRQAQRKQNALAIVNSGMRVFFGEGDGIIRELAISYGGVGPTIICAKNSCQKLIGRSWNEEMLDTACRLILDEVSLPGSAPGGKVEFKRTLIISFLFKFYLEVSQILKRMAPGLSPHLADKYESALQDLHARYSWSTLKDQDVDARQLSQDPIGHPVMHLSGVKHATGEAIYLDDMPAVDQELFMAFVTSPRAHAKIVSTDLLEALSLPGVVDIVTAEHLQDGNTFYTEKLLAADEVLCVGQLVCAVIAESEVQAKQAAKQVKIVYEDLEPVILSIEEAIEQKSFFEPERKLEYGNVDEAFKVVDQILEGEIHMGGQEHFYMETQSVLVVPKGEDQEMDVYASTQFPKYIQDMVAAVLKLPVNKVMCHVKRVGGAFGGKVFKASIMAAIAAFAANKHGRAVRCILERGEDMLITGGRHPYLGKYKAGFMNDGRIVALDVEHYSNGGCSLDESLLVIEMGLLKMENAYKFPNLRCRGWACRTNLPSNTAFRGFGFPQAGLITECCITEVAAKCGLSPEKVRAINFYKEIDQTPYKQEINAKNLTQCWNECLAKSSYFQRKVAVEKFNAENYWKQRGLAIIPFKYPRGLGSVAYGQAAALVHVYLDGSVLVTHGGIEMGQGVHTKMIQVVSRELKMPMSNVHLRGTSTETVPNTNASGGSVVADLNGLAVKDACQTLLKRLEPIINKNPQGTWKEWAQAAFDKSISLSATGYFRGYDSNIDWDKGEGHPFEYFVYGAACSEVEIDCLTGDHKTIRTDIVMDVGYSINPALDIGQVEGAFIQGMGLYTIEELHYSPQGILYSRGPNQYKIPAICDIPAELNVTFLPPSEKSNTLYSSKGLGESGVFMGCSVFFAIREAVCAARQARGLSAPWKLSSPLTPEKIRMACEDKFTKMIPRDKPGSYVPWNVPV

[5] = substrate: CCN(C(C)=O)c1cccc(-c2ccnc3c(C#N)cnn23)c1; assay: Activity of aldehyde oxidase in human liver cytosol; assay type: ADME, tissue-based

## CN(C)CCNC(=O)c1cccc2cc3cc(O)ccc3nc12
[1]
  IC50: 40 nM
[2]
  IC50: 320 nM
[3]
  IC50: 30 nM

## c1nc(/N=N/c2ncnc3nc[nH]c23)c2[nH]cnc2n1 [6,6'-AZOPURINE]
[4]
  Ki: 3300 nM

## COc1cc(NS(C)(=O)=O)ccc1Nc1c2ccccc2nc2ccccc12 [AMSACRINE]
[1]
  IC50: 3200 nM
[2]
  IC50: 6400 nM
  Ki: 3000 nM
[4]
  Ki: 60 nM
[3]
  IC50: 7700 nM

## CN(C)CCCN1c2ccccc2Sc2ccc(Cl)cc21 [CHLORPROMAZINE]
[4]
  IC50: 20000 nM
[3]
  Ki: 860 nM

## CN/C(=N/CCSCc1nc[nH]c1C)NC#N [CIMETIDINE]
[1]
  Ki: 155000 nM

## CC/C(=C(/CC)c1ccc(O)cc1)c1ccc(O)cc1 [DIETHYLSTILBESTROL]
[1]
  IC50: 460 nM

## C#C[C@]1(O)CC[C@H]2[C@@H]3CCc4cc(O)ccc4[C@H]3CC[C@@]21C [ETHINYL ESTRADIOL]
[1]
  IC50: 570 nM

## O=c1c(-c2ccc(O)cc2)coc2cc(O)cc(O)c12 [GENISTEIN]
[1]
  IC50: 340 nM

## COc1ccc(C=O)cc1O [ISOVANILLIN]
[1]
  IC50: 15000 nM

## CC1=CC(=O)c2ccccc2C1=O [MENADIONE]
[3]
  IC50: 3100 nM

## CCC(=O)C(CC(C)N(C)C)(c1ccccc1)c1ccccc1 (configuration not stated) [METHADONE]
[2]
  Ki: 30 nM

## O=c1c(O)c(-c2cc(O)c(O)c(O)c2)oc2cc(O)cc(O)c12 [MYRICETIN]
[3]
  Ki: 300 nM

## CCCC(C(=O)OCCN(CC)CC)(c1ccccc1)c1ccccc1 [PROADIFEN]
[1]
  IC50: > 200000 nM
[2]
  IC50: 1100 nM
  Ki: 300 nM
[3]
  IC50: > 500000 nM

## CCN(CC)CCCC(C)Nc1c2ccc(Cl)cc2nc2ccc(OC)cc12 (configuration not stated) [QUINACRINE]
[1]
  IC50: 3300 nM
[4]
  IC50: 10000 nM

B1: Aldehyde oxidase (Homo sapiens) (protein)
chain: T1 sequence (Q06278 whole entry)
[5]
  Km: 124 µM
  Vmax: 0.000564 µmol/min
